Here are results for 16 compounds from patent US10208074B2, “Pyrazole compounds and method for making and using the compounds” (Rigel Pharmaceuticals, Inc., priority 2015, dated 2019).

The test system of one assay is IL-23 (p19/p40). The assay can be described thus: IL23-p19 ELISA, Dendritic, LPS (compound screening using DC cells). The class given is cell-based, Human. Summed up:
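IL-23 in supernatants quantified by sandwich ELISA (anti-p19 capture, biotinylated anti-p40 detection, chemiluminescent readout) after 18 h LPS (1 μg/ml) stimulation. Cells were monocyte-derived DCs (GM-CSF/IL-4, 7 d), IFNγ-primed 24 h and given compound 1 h before LPS; viability by CellTiter Glo.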
A general note: In an ELISA, binding on a coated surface is turned into a signal by an enzyme label.

The test system of the next assay is IL-23p19. The assay can be described thus: LPS induced IL23p19 in THP-1 cells (with IFNγ primed) assay. The class given is cell-based, Human. A digest of the protocol: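 Readout is secreted IL-23p19, quantified by chemiluminescent sandwich ELISA after 18 h LPS (1 ug/mL) stimulation of THP-1 cells that had been IFNγ-primed (50 ng/mL, ~18 h) and given compound 1 h beforehand at 37 °C. EC50 derived by curve fit; cytotoxicity tracked with Cell Titer Glo.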

Setting [1] is: Homo sapiens, 18 h, PBMC-derived DC cells, IFNγ primed, LPS 1 μg/ml, 18 hours, 10 pt, read-out: IL23-p19 ELISA, Dendritic, LPS, 10 pt, EC50.
The mark [2] stands for this setting: Homo sapiens, THP-1, 18 h, THP-1 cells, IFNγ primed, LPS 1 ug/mL, 18 hours, 10 pt, read-out: IL23-p19 ELISA, THP1-IFNy, LPS, 10 pt EC50.
Where [3] appears, read: PBMC-derived DC cells, IFNγ primed, LPS 1 μg/ml, 18 hours, 10 pt, read-out: IL23-p19 ELISA, Dendritic, LPS, 10 pt, EC50.
The mark [4] stands for this setting: THP-1 cells, IFNγ primed, LPS 1 ug/mL, 18 hours, 10 pt, read-out: IL23-p19 ELISA, THP1-IFNy, LPS, 10 pt EC50.

Structures can show the parent of a compound that is named as a salt. Where two headings read alike, the source gives them in different places.

On to `Cn1cc(-c2ccc(C(=O)Nc3cn(CC(C)(C)O)nc3-c3ccccn3)o2)cn1` [Compound I-1, N-(1-(2-hydroxy-2-methylpropyl)-3-(pyridin-2-yl)-1H-pyrazol-4-yl)-5-(1-methyl-1H-pyrazol-4-yl)furan-2-carboxamide 2,2,2-trifluoroacetate], for which the EC50 (as a rule, the concentration giving half of the maximal effect) with IL-23 (p19/p40) (Homo sapiens, 18 h, read-out: IL23-p19 ELISA, Dendritic, LPS, 10 pt, EC50 (μM)) was determined as 3.73 µM; in the assay with IL-23p19 (Homo sapiens, THP-1, 18 h, read-out: IL23-p19 ELISA, THP1-IFNy, LPS, 10 pt EC50 (μM)), 5.66 µM.
Turning to `O=C(Nc1cn([C@H]2CC[C@H](O)CC2)nc1-c1ccccn1)c1csc(-c2cn[nH]c2)n1` [II-143, N-(1-((trans)-4-hydroxycyclohexyl)-3-(pyridin-2-yl)-1H-pyrazol-4-yl)-2-(1H-pyrazol-4-yl)thiazole-4-carboxamide], the EC50 with IL-23 (p19/p40) (setting [1]) is 0.0164 µM; with IL-23p19 (setting [2]), 0.0308 µM.
For `CC(C)O[C@H]1C[C@@H](n2cc(NC(=O)c3ccc(-c4cn[nH]c4)o3)c(-c3ccccn3)n2)C1` [Compound I-114, N-(1-((1s,3s)-3-isopropoxycyclobutyl)-3-(pyridin-2-yl)-1H-pyrazol-4-yl)-5-(1H-pyrazol-4-yl)furan-2-carboxamide], in that order: 0.0616 µM and 0.0493 µM.
In the case of `O=C(Nc1cn(C2CCC2)nc1-c1ccccn1)c1coc(-c2cn[nH]c2)n1` [III-5, N-(1-cyclobutyl-3-(pyridin-2-yl)-1H-pyrazol-4-yl)-2-(1H-pyrazol-4-yl)oxazole-4-carboxamide], the half-maximal effective concentration (EC50) in the assay on IL-23 (p19/p40) (setting [1]) turned out to be 0.071 µM; with IL-23p19 (setting [2]), 0.27 µM.
In the case of `Cc1n[nH]cc1-c1nc(C(=O)Nc2cn(CC(F)(F)F)nc2-c2ccccn2)cs1` [II-100, 2-(3-methyl-1H-pyrazol-4-yl)-N-(3-(pyridin-2-yl)-1-(2,2,2-trifluoroethyl)-1H-pyrazol-4-yl)thiazole-4-carboxamide], the concentration for a half-maximal effect (EC50) is 0.226 µM in the assay on IL-23 (p19/p40) (setting [1]) and 0.0561 µM in the assay with IL-23p19 (setting [2]).
For `O=C(Nc1cn([C@H]2C[C@@H](OCC(F)(F)F)C2)nc1-c1cccc(F)n1)c1csc(-c2cn[nH]c2)n1` [II-170, N-(3-(6-fluoropyridin-2-yl)-1-((cis)-3-(2,2,2-trifluoroethoxy)cyclobutyl)-1H-pyrazol-4-yl)-2-(1H-pyrazol-4-yl)thiazole-4-carboxamide], in that order: 0.0904 µM and 0.0491 µM.
For `O=C(Nc1cn([C@H]2CC[C@@H](O)C2)nc1-c1ccccn1)c1ccc(-c2cn[nH]c2)o1` [Compound I-134, N-(1-((1S,3R)-3-hydroxycyclopentyl)-3-(pyridin-2-yl)-1H-pyrazol-4-yl)-5-(1H-pyrazol-4-yl)furan-2-carboxamide formate], the figures for the EC50 in the assay with IL-23 (p19/p40) (setting [1]) and in the assay with IL-23p19 (setting [2]) were 0.091 µM and 0.0296 µM, respectively.
In the same order, the values of `Cn1cc(NC(=O)c2csc(-c3cn[nH]c3)n2)c(C(F)(F)F)n1` [II-63, N-(1-methyl-3-(trifluoromethyl)-1H-pyrazol-4-yl)-2-(1H-pyrazol-4-yl)thiazole-4-carboxamide trifluoroacetate salt] are 5.45 µM and 20.8 µM.
With `O=C(Nc1cn(C2CCOCC2)nc1-c1nnco1)c1csc(-c2cn[nH]c2)n1` [II-75, N-(3-(1,3,4-oxadiazol-2-yl)-1-(tetrahydro-2H-pyran-4-yl)-1H-pyrazol-4-yl)-2-(1H-pyrazol-4-yl)thiazole-4-carboxamide], the EC50 with IL-23 (p19/p40) (setting [1]) stood at 0.537 µM; with IL-23p19 (setting [2]), 2.49 µM.
`CCO[C@H]1CC[C@H](n2cc(NC(=O)c3csc(-c4cn[nH]c4)n3)c(-c3ncccc3F)n2)CC1` [II-169, N-(1-((trans)-4-ethoxycyclohexyl)-3-(3-fluoropyridin-2-yl)-1H-pyrazol-4-yl)-2-(1H-pyrazol-4-yl)thiazole-4-carboxamide]: the concentration giving a half-maximal response (EC50) turned out to be 0.41 µM in the assay on IL-23 (p19/p40) (setting [1]) and 0.042 µM in the assay with IL-23p19 (setting [2]).
As for `CCO[C@H]1C[C@@H](n2cc(NC(=O)c3csc(-c4cn[nH]c4F)n3)c(-c3ccccn3)n2)C1` [II-73, N-(1-((1s,3s)-3-ethoxycyclobutyl)-3-(pyridin-2-yl)-1H-pyrazol-4-yl)-2-(5-fluoro-1H-pyrazol-4-yl)thiazole-4-carboxamide], the EC50 with IL-23 (p19/p40) (setting [3]) was found to be 0.343 µM; in the assay on IL-23p19 (setting [4]), 0.369 µM.
As for `CCO[C@@H]1CC[C@H](n2cc(NC(=O)c3ccc(-c4cn[nH]c4)o3)c(-c3ccccn3)n2)C1` [Compound I-133, N-(1-((1S,3R)-3-ethoxycyclopentyl)-3-(pyridin-2-yl)-1H-pyrazol-4-yl)-5-(1H-pyrazol-4-yl)furan-2-carboxamide], the figures for the concentration giving a half-maximal response (EC50) with IL-23 (p19/p40) (setting [3]) and in the assay with IL-23p19 (setting [4]) were 0.387 µM and 0.0806 µM, respectively.
For `COCCOCCN(C(=O)c1ccc(-c2cnn(CCOCCOC)c2)o1)c1cn(CCOCCOC)nc1-c1ccccn1` [Compound I-50, N-(2-(2-methoxyethoxy)ethyl)-5-(1-(2-(2-methoxyethoxy)ethyl)-1H-pyrazol-4-yl)-N-(1-(2-(2-methoxyethoxy)ethyl)-3-(pyridin-2-yl)-1H-pyrazol-4-yl)furan-2-carboxamide formate], the concentration giving a half-maximal response (EC50) with IL-23 (p19/p40) (setting [1]) stood at 3.51 µM; in the assay with IL-23p19 (setting [2]), 14.2 µM.
Take `CCO[C@@H]1CC[C@H](n2cc(NC(=O)c3ccc(-c4cn[nH]c4)o3)c(-c3ccccn3)n2)C1` [Compound I-132, N-(1-((1S,3R)-3-ethoxycyclopentyl)-3-(pyridin-2-yl)-1H-pyrazol-4-yl)-5-(1H-pyrazol-4-yl)furan-2-carboxamide formate]: the EC50 in the assay with IL-23 (p19/p40) (PBMC-derived DC cells, IFNγ primed, LPS 1 μg/ml, 18 hours, 10 pt, formate, read-out: IL23-p19 ELISA, Dendritic, LPS, 10 pt, EC50) was found to be 0.103 µM; with IL-23p19 (setting [2]), 0.0812 µM.
Regarding `CCO[C@@H]1CC[C@H](n2cc(NC(=O)c3csc(-c4cn[nH]c4)n3)c(-c3ccccn3)n2)C1` (relative stereo) [II-147, N-(1-((cis)-3-ethoxycyclopentyl)-3-(pyridin-2-yl)-1H-pyrazol-4-yl)-2-(1H-pyrazol-4-yl)thiazole-4-carboxamide], the values for the concentration for a half-maximal effect (EC50) with IL-23 (p19/p40) (setting [1]) and in the assay on IL-23p19 (setting [2]) were 0.0987 µM and 0.0574 µM, respectively.
Take `O=C(Nc1cn(CCOCC(F)F)nc1-c1ccccn1)c1csc(-c2cn[nH]c2)n1` [II-122, N-(1-(2-(2,2-difluoroethoxy)ethyl)-3-(pyridin-2-yl)-1H-pyrazol-4-yl)-2-(1H-pyrazol-4-yl)thiazole-4-carboxamide]: the half-maximal effective concentration (EC50) amounted to 0.304 µM in the assay with IL-23 (p19/p40) (setting [1]) and 0.213 µM in the assay on IL-23p19 (setting [2]).
